These are literature values, as cited in publication PMC12737490, “Beta Toxins Isolated from the Scorpion Centruroides hirsutipalpus (Scorpiones; Buthidae) Affect the Function of Sodium Channels of Mammals” (Toxins, 2025).

One data set relates to Nav1.2. The note with it: ref [34]; cited from earlier work. An excerpt: (§1) The Chirp9 peptide in the venom of C. hirsutipalpus has an abundance of 2.8%. It has an experimental mass of 7790.1 Da and a theoretical mass of 7790.9 Da. The sequence of Chirp9 (Figure 3B) shares 97% identity with the Cl13 toxin from the C. limpidus scorpion (UniProt C0HK69) and differs by only two amino acid substitutions: L5I and Q54A. These substitutions could modulate the toxic properties of the venom through structural alterations in the peptide that influence its interaction with target sites, possibly leading to increased potency or stability. The Cl13 toxin is found in C. limpidus ve ...

For another data set, the system named is Nav1.4. The note with it: ref [34]; cited from earlier work.
Excerpt: as §1

Another data set concerns Nav1.5. Conditions: ref [34]; cited from earlier work.
Excerpt: as §1

A further data set deals with Nav1.6. The note with it: ref [34]; cited from earlier work.
Excerpt: as §1

The next data set deals with sodium channel. The note with it: stated as reported earlier; no reference in the sentence; cited from earlier work.
The test system of a further data set is hNav1.6 channel. Conditions: ref [13]; cited from earlier work. An excerpt: When comparing the sequence of the new toxins β-NaScTxs from C. hirsutipalpus with sequences from different scorpions (Figure 3A) using BLASTp version 2.11.0, it is shown that the sequence of the toxin Chirp7 is 100% identical to the sodium toxin Ct1a (UniProt accession P18926) from the C. tecomanus scorpion.

As to “Cl13: beta toxin from the C. limpidus scorpion, 97% identity with Chirp9”, the “effect on sodium currents” value with Nav1.2, with Nav1.4, with Nav1.5 and with Nav1.6 was “modifies sodium currents” each time. Further, in the data set on sodium channel, the “effect on sodium channel inactivation kinetics” value is reported as “slow down the kinetics of sodium channel inactivation”.

On to “Ct1a: sodium toxin Ct1a from the C. tecomanus scorpion, sequence 100% identical to Chirp7”, for which, in the data set with hNav1.6 channel, the “effect on hNav1.6 channel” value is “altering channel activation by lowering the action potential and decreasing the current amplitude”.
